PubChem BioAssay (NCI)
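Test compounds were applied to cells in 96-well plates for 48 hours at 5 doses. The concentration for 50% growth inhibition is given as GI50. TGI is the concentration that stops growth completely.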

Key:
Experiment in all cases: NCI anticancer screen, dose series, 48 h
U251 CNS = test system: U251 CNS
DU-145 prostate = test system: DU-145 prostate
NCI-H23 lung = test system: NCI-H23 lung
UACC-257 melanoma = test system: UACC-257 melanoma
HOP-62 NSCLC = test system: HOP-62 NSCLC
TK-10 renal = test system: TK-10 renal
K-562 leukemia = test system: K-562 leukemia
COLO 205 colon = test system: COLO 205 colon
LOX IMVI melanoma = test system: LOX IMVI melanoma
SK-OV-3 ovarian = test system: SK-OV-3 ovarian

SMILES	TGI (U251 CNS)	TGI (DU-145 prostate)	TGI (NCI-H23 lung)	TGI (UACC-257 melanoma)	TGI (HOP-62 NSCLC)	TGI (TK-10 renal)	TGI (K-562 leukemia)	TGI (COLO 205 colon)	TGI (LOX IMVI melanoma)	TGI (SK-OV-3 ovarian)	GI50 (U251 CNS)	GI50 (DU-145 prostate)	GI50 (NCI-H23 lung)	GI50 (UACC-257 melanoma)	GI50 (HOP-62 NSCLC)	GI50 (TK-10 renal)	GI50 (K-562 leukemia)	GI50 (COLO 205 colon)	GI50 (LOX IMVI melanoma)	GI50 (SK-OV-3 ovarian)
O=S1(=O)CCN(Cc2ccccn2)CC1	> 100 µM	> 100 µM	> 100 µM	> 100 µM	> 100 µM	> 100 µM	> 100 µM	> 100 µM	> 100 µM	> 100 µM	–	–	–	–	–	–	–	–	–	–
CCOC(=O)CC1(O)C=CC(=O)C=C1	1.45 µg/mL	7.75 µg/mL	1.75 µg/mL	2.09 µg/mL	5.29 µg/mL	6.04 µg/mL	10.8 µg/mL	6.19 µg/mL	1.68 µg/mL	5.53 µg/mL	0.477 µg/mL	2.54 µg/mL	0.541 µg/mL	0.883 µg/mL	2.82 µg/mL	2.12 µg/mL	1.37 µg/mL	2.59 µg/mL	0.498 µg/mL	1.71 µg/mL
CO[C@@H]1[C@@H](OC2OC(C)C(OC3CC(C)(O)C(OC(=O)CC(C)C)C(C)O3)C(N(C)C)C2O)[C@@H](CC=O)C[C@@H](C)C(=O)/C=C/C2O[C@H]2C[C@@H](C)OC(=O)C[C@H]1OC(C)=O (stereo not given in full)	35.7 µM	28 µM	45.8 µM	34 µM	37.8 µM	50.9 µM	39.8 µM	26.2 µM	30.4 µM	> 100 µM	–	–	–	–	–	–	–	–	–	–
ClCCN(CCCl)c1ccc(-n2cnc3c(Cl)ncnc32)cc1	9.1 µM	3.59 µM	3.79 µM	5.16 µM	20.2 µM	81.9 µM	9.92 µM	19.1 µM	4.09 µM	22.9 µM	2.91 µM	1.88 µM	2.02 µM	2.24 µM	6.94 µM	13 µM	3.24 µM	5.74 µM	2 µM	11 µM
C(=C1c2ccccc2-c2ccccc21)c1ccccn1	70.9 µM	44.9 µM	96.7 µM	> 100 µM	60.8 µM	57.3 µM	> 100 µM	29.5 µM	25.8 µM	64.9 µM	6.22 µM	16.1 µM	10.3 µM	20.1 µM	6.61 µM	19 µM	3.93 µM	8.56 µM	8.52 µM	13.1 µM
CCC[C@H](N[C@@H]1CCc2cc(F)cc(F)c2C1)C(=O)Nc1cn(C(C)(C)CNCC(C)(C)C)cn1	58.7 µM	> 100 µM	> 89.9 µM	37.7 µM	75.1 µM	72.7 µM	> 89.2 µM	26.9 µM	30.6 µM	> 100 µM	15.7 µM	29.7 µM	17.3 µM	13.2 µM	20.8 µM	21.8 µM	8.33 µM	12.5 µM	15.5 µM	26.3 µM
COc1cccc(/C=N\Nc2ccc([N+](=O)[O-])cn2)c1O	19.8 µM	62.6 µM	14.9 µM	20.6 µM	25.5 µM	> 100 µM	> 100 µM	> 100 µM	14.6 µM	20.4 µM	1.93 µM	4.34 µM	2.92 µM	3.19 µM	3.89 µM	7.31 µM	3.12 µM	27.8 µM	2.58 µM	2.94 µM
